Assays:
[1] = molecular target: T1, human recombinant serotonin (5-Hydroxytryptamine) 5-HT5A receptor (Homo sapiens, UniProt P47898); assay: Serotonin 5-HT5A radioligand binding ([3H]LSD); conditions: read-out: Serotonin 5-HT5A, inhibition of ligand binding (1 μM)
T1 construct: expressed in transfected cells; host or cells: CHO-K1 cells
Experimental: To evaluate in radioligand binding assays the activity of compounds of the invention, human recombinant serotonin (5-Hydroxytryptamine) 5-HT5A receptor expressed in Chinese hamster ovary (CHO-K1) cells (Rees, S. et al., FEBS Lett. 355:242, 1994) in a modified Tris-HCl buffer (50 mM Tris-HCl, pH 7.4, 10 mM MgCl2, 0.5 mM EDTA) was used. Compounds of the invention were incubated with 1.7 nM [^3H]Lysergic acid diethylamide (LSD) for 60 minutes at 37° C. Non-specific binding was estimated in the presence of 100 μM Serotonin (5-HT). Receptor proteins were filtered and washed, the filters were then counted to determine [^3H]LSD specifically bound. Compounds were screened at 1 μM or lower, using 1% DMSO as vehicle. Compounds of the invention were tested in this biochemical assay and percent inhibition of specific binding was determined. Biochemical assay results are presented as the percent inhibition of specific binding in Table 4.

[2] = molecular target: T2, human recombinant serotonin (5-Hydroxytryptamine) 5-HT2B receptor (Homo sapiens, UniProt P41595); assay: Serotonin 5-HT2B radioligand binding ([3H]LSD); conditions: for inhibition at 1 µM: read-out: Serotonin 5-HT2B, inhibition of ligand binding (1 μM)
T2 construct: expressed in transfected cells; host or cells: CHO-K1 cells
Experimental: To evaluate in radioligand binding assays the activity of compounds of the invention, human recombinant serotonin (5-Hydroxytryptamine) 5-HT2B receptor expressed in Chinese hamster ovary (CHO-K1) cells (Bonhaus, D. W. et al., Br. J. Pharmacol. 115:622, 1995) in a modified Tris-HCl buffer (50 mM Tris-HCl, pH 7.4, 4 mM CaCl2, 0.1% Ascorbic Acid) was used. Compounds of invention were incubated with 1.2 nM [^3H]Lysergic acid diethylamide (LSD) for 60 minutes at 37° C. Non-specific binding was estimated in the presence of 10 μM Serotonin (5-HT). Receptor proteins were filtered and washed, the filters were then counted to determine [^3H]LSD specifically bound. Compounds were screened at 1 μM or lower, using 1% DMSO as vehicle. Compounds of the invention were tested in this biochemical assay and percent inhibition of specific binding was determined. Biochemical assay results are presented as the percent inhibition of specific binding in Table 4.

[3] = molecular target: T3, rat adrenergic α1A receptor (Rattus norvegicus, UniProt P43140); assay: Adrenergic α1A radioligand binding ([3H]Prozosin); conditions: for inhibition at 1 µM: read-out: Adrenergic α1A, inhibition of ligand binding (1 μM)
T3 construct: obtained from Wistar Rat submaxillary glands; from tissue; host or cells: Wistar rat submaxillary glands
T3 sequence (P43140 1-466): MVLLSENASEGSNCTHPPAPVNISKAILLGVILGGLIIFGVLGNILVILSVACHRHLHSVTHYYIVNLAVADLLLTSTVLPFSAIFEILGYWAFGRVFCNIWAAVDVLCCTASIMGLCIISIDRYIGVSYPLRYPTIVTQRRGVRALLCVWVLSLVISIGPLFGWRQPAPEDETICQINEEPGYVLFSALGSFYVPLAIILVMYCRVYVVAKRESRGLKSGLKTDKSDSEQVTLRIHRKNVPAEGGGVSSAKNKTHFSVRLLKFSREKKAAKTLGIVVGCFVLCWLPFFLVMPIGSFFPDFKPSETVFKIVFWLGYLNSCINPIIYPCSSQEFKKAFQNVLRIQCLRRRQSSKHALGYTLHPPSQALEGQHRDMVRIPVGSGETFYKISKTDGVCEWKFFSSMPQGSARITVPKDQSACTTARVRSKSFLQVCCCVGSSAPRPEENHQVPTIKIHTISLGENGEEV
Experimental: To evaluate in radioligand binding assays the activity of compounds of the invention, rat adrenergic α1A receptor obtained from Wistar Rat submaxillary glands (Michel, A. D. et al., Br. J. Pharmacol. 98:883, 1989) in a modified Tris-HCl buffer (50 mM Tris-HCl buffer, pH 7.4, 0.5 mM EDTA) was used. Compounds of the invention were incubated with 0.25 nM [^3H]Prozosin for 60 minutes at 25° C. Non-specific binding was estimated in the presence of 10 μM phentolamine. Receptor proteins were filtered and washed, the filters were then counted to determine [^3H]Prozosin specifically bound. Compounds of the invention were screened at 1 μM or lower, using 1% DMSO as vehicle. Compounds of the invention were tested in this biochemical assay and percent inhibition of specific binding was determined.

[4] = molecular target: T4, human recombinant adrenergic α2C receptor (Homo sapiens, UniProt P18825); assay: Adrenergic α2C radioligand binding ([3H]MK-912); conditions: for inhibition at 1 µM: read-out: Adrenergic α2C, inhibition of ligand binding (1 μM)
T4 construct: expressed in transfected cells; host or cells: insect Sf9 cells
T4 sequence (P18825 1-462): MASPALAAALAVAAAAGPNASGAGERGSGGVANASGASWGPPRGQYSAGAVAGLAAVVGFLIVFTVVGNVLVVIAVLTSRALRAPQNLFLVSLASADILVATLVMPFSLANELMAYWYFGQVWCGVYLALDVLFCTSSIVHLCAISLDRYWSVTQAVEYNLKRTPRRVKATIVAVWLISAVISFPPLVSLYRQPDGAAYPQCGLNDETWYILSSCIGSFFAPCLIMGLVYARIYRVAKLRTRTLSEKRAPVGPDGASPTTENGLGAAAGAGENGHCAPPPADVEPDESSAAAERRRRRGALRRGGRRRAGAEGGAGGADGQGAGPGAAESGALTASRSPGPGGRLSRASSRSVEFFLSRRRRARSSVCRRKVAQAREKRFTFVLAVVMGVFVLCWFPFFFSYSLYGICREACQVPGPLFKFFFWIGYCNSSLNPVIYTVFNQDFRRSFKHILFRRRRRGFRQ
Experimental: To evaluate in radioligand binding assays the activity of compounds of the invention, human recombinant adrenergic α2C receptor expressed in insect Sf9 cells (Uhlen S et al. J Pharmacol Exp Ther. 271:1558, 1994) in a modified Tris-HCl buffer (50 mM Tris-HCl, pH 7.4, 12.5 mM MgCl2, 2 mM EDTA) was used. Compounds of the invention were incubated with 1 nM [^3H]MK-912 for 60 minutes at 25° C. Non-specific binding was estimated in the presence of 10 μM WB-4101. Receptor proteins were filtered and washed, the filters were then counted to determine [^3H]MK-912 specifically bound. Compounds were screened at 1 μM or lower, using 1% DMSO as vehicle. Compounds of the invention were tested in this biochemical assay and percent inhibition of specific binding was determined.

T2 sequence (P41595 whole entry): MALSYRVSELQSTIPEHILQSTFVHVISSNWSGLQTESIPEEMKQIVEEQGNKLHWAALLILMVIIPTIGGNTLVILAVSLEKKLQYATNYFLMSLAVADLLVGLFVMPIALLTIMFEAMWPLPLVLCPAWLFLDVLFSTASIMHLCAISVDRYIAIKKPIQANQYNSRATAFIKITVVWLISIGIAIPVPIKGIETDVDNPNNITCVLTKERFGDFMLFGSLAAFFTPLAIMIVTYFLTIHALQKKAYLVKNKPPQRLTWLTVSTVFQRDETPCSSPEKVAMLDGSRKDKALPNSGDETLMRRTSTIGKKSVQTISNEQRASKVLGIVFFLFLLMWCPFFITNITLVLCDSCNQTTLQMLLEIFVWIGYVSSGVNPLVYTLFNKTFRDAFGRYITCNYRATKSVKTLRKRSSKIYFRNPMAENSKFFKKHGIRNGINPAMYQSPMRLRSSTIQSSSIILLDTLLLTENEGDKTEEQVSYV
T1 sequence (P47898 whole entry): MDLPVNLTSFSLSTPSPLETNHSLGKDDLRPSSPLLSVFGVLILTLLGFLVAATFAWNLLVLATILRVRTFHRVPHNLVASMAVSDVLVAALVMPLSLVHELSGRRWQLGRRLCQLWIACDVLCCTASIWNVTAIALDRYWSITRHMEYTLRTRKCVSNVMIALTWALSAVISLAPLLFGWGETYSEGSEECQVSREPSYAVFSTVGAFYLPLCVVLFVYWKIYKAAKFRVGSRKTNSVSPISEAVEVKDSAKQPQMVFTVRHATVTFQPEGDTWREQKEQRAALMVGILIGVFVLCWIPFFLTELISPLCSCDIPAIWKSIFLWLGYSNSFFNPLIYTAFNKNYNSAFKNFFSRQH

`Cc1ccc2c(c1)c1c(n2CCc2ccccc2)CC2CCC1N2C` (stereo not shown) [Compound 2] gave an inhibition at 1 µM [1] of 86%, an inhibition at 0.03 µM ([2]; read-out: Serotonin 5-HT2B, inhibition of ligand binding (0.03 μM)) of 37% and an inhibition at 0.3 µM ([2]; read-out: Serotonin 5-HT2B, inhibition of ligand binding (0.3 μM)) of 88%. For the same compound, the inhibition at 1 µM [2] was 71%, the inhibition at 0.03 µM ([3]; read-out: Adrenergic α1A, inhibition of ligand binding (0.03 μM)) was 66% and the inhibition at 0.3 µM ([3]; read-out: Adrenergic α1A, inhibition of ligand binding (0.3 μM)) was 97%. For the same compound, the inhibition at 1 µM [3] was 98%, the inhibition at 0.03 µM ([4]; read-out: Adrenergic α2C, inhibition of ligand binding (0.03 μM)) was 14% and the inhibition at 0.3 µM ([4]; read-out: Adrenergic α2C, inhibition of ligand binding (0.3 μM)) was 69%. The inhibition at 1 µM [4] was 97%.
`Cc1ccc2c(c1)c1c(n2CCc2ccccc2)CC2CCCC1N2C` (stereo not shown) [Compound 56] was tested, and the inhibition at 1 µM [1] was 40%, the inhibition at 1 µM [2] was -11% and the inhibition at 1 µM [3] was 94%. The inhibition at 1 µM [4] was 55%.
For `CN1C2CCC1c1c(n(CCc3ccc(F)cc3)c3ccc(Cl)cc13)C2` (stereo not shown) [Compound 57], the inhibition at 1 µM [1] was 48%, the inhibition at 1 µM [2] was 48% and the inhibition at 1 µM [3] was 90%. It also gave an inhibition at 1 µM [4] of 83%.
`CN1C2CCC1c1c(n(CCc3ccc(Cl)cc3)c3ccc(Cl)cc13)C2` (stereo not shown) [Compound 58] was tested, and the inhibition at 1 µM [1] was 69%, the inhibition at 1 µM [2] was 32% and the inhibition at 1 µM [3] was 89%. For the same compound, the inhibition at 1 µM [4] was 89%.

Reference: patent US8546381B2, “Bridged heterocyclic compounds and methods of use” (Medivation Technologies, Inc., priority 2008, dated 2013)
